Measured values published in patent publication US9868716B2, “Method for preventing and/or treating a subject suffering from asthma” (Hong Kong Baptist University, priority 2014, dated 2018).

Experiments:
[1] = biological target: T1, Syk (Mus musculus, UniProt P48025); assay: Western Blot of phosphorylated Syk in spleen cells of asthma mice; assay type: in vivo; parameters: from tissue; host or cells: mouse spleen cells; settings: spleen cells of mice having asthma; FIG. 2b, 2c
Method: (§1) Lymph nodes and spleen of mice were collected. The collected tissues were respectively grinded, counted and cultivated. The cultured tissues were stimulated with PMA and ionomycin for 48 hours. The supernatant and the cells were then collected for analysis. The supernatant was used for examining various cytokines, and the cells were used for measuring expressions of various T cell specific proteins by Western blot.
(§2) To obtain the data in FIG. 2a, murine spleen cells were grinded and treated with OVA for 3 days, and then the supernatants of the cell mixtures were collected for ELISA analysis. […] As shown in FIG. 2b and FIG. 2c, the signal transduction proteins in spleen cells were detected. According to the experimental results, N7 inhibits the phosphorylation of Syk in spleen cells of mice having asthma.

[2] = system: Zap70; assay: Western Blot of phosphorylated Zap70 in spleen cells of asthma mice; assay type: in vivo; settings: FIG. 2b, 2c
Method: as §1, §2

[3] = system: PBMC of asthma patients; assay: qPCR of cytokines in PBMC of asthma patients; assay type: cell-based, human; settings: mRNA by qPCR, FIG. 4
Method: Blood samples were collected from normal (healthy) people and people with asthma Peripheral blood mononuclear cells (PBMC) were isolated. By using Ficoll-density method, the effect of Nujiangexanthone A on the release of various cytokines in the isolated PBMCs was measured by qPCR.

[4] = system: murine spleen cells; assay: ELISA of cytokines in spleen cells of asthma mice; assay type: in vivo; settings: spleen cells treated with OVA for 3 days, ELISA (IL-4, IL-5, IL-13, IFNγ); FIG. 2a
Method: as §1, §2

[5] = biological target: T1, Syk; assay: Immunoprecipitation of Syk phosphorylation in IgE/DNP-HSA-stimulated murine mast cells; assay type: cell-based, mice; settings: murine BMMC, N7 1 hour, then antigen 5 minutes; FIG. 1a
Method: (§3) Bone marrow-derived mast cells (BMMC) of mice were separated from BALB/c murine marrow and were cultured in RPMI1640 liquid containing IL-3, 10% of calf serum, 100 U/ml of penicillin and 100 μg/ml of streptomycin for 6 weeks. Two markers c-kit and FceRI on cell membranes were detected by using flow cytometric analysis. When double-positive cells detected, having both markers, have exceeded 95%, the cultured cells can be used for the experiment.
(§4) Mast cells were pre-treated with IgE overnight, and were washed by PBS thrice. After re-suspended with medium, they were treated with different concentrations of Nujiangexanthone A for 1 hour. Dinitrophenyl human serum albumin (DNP-HSA) was used to treat the cells for 5 minutes. A/G agarose was added into the cell lysates and the mixtures were rotated at a rotator for 1 hour. Antibodies of Syk, Fyn and Lyn were added, and the mixtures were rotated overnight. On the following day, PBS was used to wash the complex of magnetic beads, antibody and protein for 5 times. A Western Blot loading dye was added into the complex and the mixtures were boiled for 5 minutes. […]
(§5) The results of FIG. 1a are obtained by pretreating the antibody-treated mast cells with N7 and Src family inhibitor PP2 for 1 hour and then treating the cells with antigens for 5 minutes. […] The downstream signal pathways of Syk including MAPKs, NF-kB and AP-1 were then analyzed by Western Blot.

[6] = biological target: T1, Syk; assay: Immunohistochemistry of p-Syk in lung tissues of asthma model mice; assay type: in vivo; settings: FIG. 3d
Method: (§6) Balb/c mice of SPF grade were selected for establishing an asthma animal model. With reference to FIG. 3a, ovalalbumin (OVA) dissolved in PBS with aluminum hydroxide gel was intraperitoneally injected to the mice to trigger systemic allergic responses, i.e. OVA sensitization. Then, atomized OVA was given to stimulate or challenge respiratory tracts of the mice. As such, a control group was prepared. By using the similar approach, treatment groups with an administration of N7 in different concentrations as well as a positive control group with an administration of dexamethasone were established. Also, a further control group of PBS was established by using same volume of PBS to replace OVA and using the PBS to replace the atomized OVA.
(§7) Symptoms of the mice were recorded during the test. Peripheral blood of the mice was collected before the end of the test so as to measure the release of IgE. Airway lavages were collected and the supernatants thereof were tested to measure the release of various cytokines. Cells were counted after being fixed and stained. The effect of Nujiangexanthone A on different types of immune cells was studied.

[7] = system: Balb/c mice, asthma animal model; assay: OVA asthma animal model; assay type: in vivo
Method: as §6, §7

[8] = system: Lck; assay: Western blot of Lck phosphorylation in PMA/ionomycin-treated Jurkat cells; assay type: cell-based, Human; settings: N7 1 hour, PMA and ionomycin 15 minutes, FIG. 5a
Method: (§8) Jurkat T cells were cultured in RPMI1640 containing 10% fetal calf serum, 100 U/ml of penicillin and 100 μg/ml of streptomycin. The cells were passed once every two days with fresh medium. After pretreating the cells with a medicament, PMA and ionomycin were used to treat the cells at different time points. After the treatments, the cells were collected for biomarker measurements.
(§9) Jurkat T cells culture: in a safe range of concentrations, cells were treated with Nujiangexanthone A in corresponding concentrations for 5, 15 and 30 minutes. The samples were collected and lysed. The samples were then separated by 8% gel in SDS-PAGE and transferred to PVDF membrane. The following antibodies were used to analyze the samples: ERK, JNK, p38, IKK, IkBa, NF-kB and so forth. If the compound is found to interfere with the expression and phosphorylation of the target proteins, a corresponding specific inhibitor may be used to conduct a comparative analysis.
(§10) In one test, Jurkat cells were pretreated with N7 and Src family inhibitor PP2 for 1 hour and then co-treated with PMA and ionomycin for 15 minutes. Then, a plurality of proteins of T cells signaling transduction pathways were measured by Western blot.

[9] = system: GATA3; assay: Western Blot of GATA3 in spleen cells of asthma mice; assay type: in vivo; settings: FIG. 2b, 2c
Method: as §1, §2

[10] = system: Murine BMMCs; assay: Activation of murine mast cells (cytokines, degranulation, Ca2+, LTC4); assay type: cell-based, BALB/c mice; settings: BMMC
Method: Murine BMMCs were isolated from BALB/c murine marrow and were cultured in a RPMI1640 medium containing IL-3, 10% of calf serum, 100 U/ml of penicillin and 100 μg/ml of streptomycin for 6 weeks. Two markers c-kit and FceRI on cell membranes were detected by using flow cytometric analysis. When double-positive cells detected, having both markers, have exceeded 95%, the cultured cells can be used for the experiment.
(§11) IgE mast cells were pretreated with IgE overnight and washed by PBS thrice. After re-suspended with medium, they were treated with different concentrations of Nujiangexanthone A for 1 hour. DNP-HAS or antigen was then used to treat the cells for 6 hours. The supernatants were collected for measurement. The amounts of TNF-α and IL-6 were measured by an ELISA kit.
as §11, with “15 minutes.” for “6 hours.”, “LTC4” for “TNF-α”, “Ca^2+ as well as the degranulation response” for “IL-6”
The amount of b-Hex was measured to evaluate the degranulation response.

[11] = system: Fyn; assay: Immunoprecipitation of Fyn phosphorylation in IgE/DNP-HSA-stimulated murine mast cells; assay type: cell-based, mice; settings: murine BMMC, N7 1 hour, then antigen 5 minutes; FIG. 1a
Method: as §3, §4, §5

[12] = system: Syk; assay: Western blot of Syk phosphorylation in PMA/ionomycin-treated Jurkat cells; assay type: cell-based, Human; settings: N7 1 hour, PMA and ionomycin 15 minutes, FIG. 5a
Method: as §8, §9, §10

[13] = system: Fyn; assay: Western blot of Fyn phosphorylation in PMA/ionomycin-treated Jurkat cells; assay type: cell-based, Human; settings: N7 1 hour, PMA and ionomycin 15 minutes, FIG. 5a
Method: as §8, §9, §10

[14] = system: downstream signal pathways of Syk including MAPKs, NF-kB and AP-1; assay: Western Blot of downstream signaling pathways of Syk in murine mast cells; assay type: cell-based, mice; settings: murine BMMC, FIG. 1b
Method: as §3
as §9, with “Cells” for “Jurkat T cells culture: in a safe range of concentrations, cells”, “A (N7)” for “A”, “sodium dodecyl sulfate polyacrylaminde gel electrophoresis (SDS-PAGE)” for “SDS-PAGE”, “polyvinylidene fluoride (PVDF)” for “PVDF”
The results of FIG. 1a are obtained by pretreating the antibody-treated mast cells with N7 and Src family inhibitor PP2 for 1 hour and then treating the cells with antigens for 5 minutes. Phosphorylation of Syk, Fyn and Lyn were then examined by immunoprecipitation. The results of FIG. 1b are obtained by pretreating the antibody-treated mast cells with N7 and Src family inhibitor PP2 for one hour and then treating with antigens for 15 minutes. The downstream signal pathways of Syk including MAPKs, NF-kB and AP-1 were then analyzed by Western Blot.

[15] = system: lung tissue; assay: Cytokines in lung tissue of asthma animal models; assay type: in vivo; settings: asthma model mice; FIG. 7
Method: as §6
Some portions of lung tissue of the animal models were collected to evaluate lung inflammatory status. A portion of the collected lung tissue was isolated to extract RNA, and another portion of the lung tissue was grinded and digested for cytokines measurements.

[16] = system: Lyn; assay: Immunoprecipitation of Lyn phosphorylation in IgE/DNP-HSA-stimulated murine mast cells; assay type: cell-based, mice; settings: murine BMMC, N7 1 hour, then antigen 5 minutes; FIG. 1a
Method: as §3, §4, §5

[17] = system: T-bet; assay: Western Blot of T-bet in spleen cells of asthma mice; assay type: in vivo; settings: FIG. 2b, 2c
Method: as §1, §2

[18] = system: Stat6; assay: Western Blot of phosphorylated Stat6 in spleen cells of asthma mice; assay type: in vivo; settings: FIG. 2b, 2c
Method: as §1, §2

[19] = N7 1 hour, DNP-HAS 15 minutes, dose-dependent, FIG. 6
[20] = N7 1 hour, DNP-HAS 6 hours, ELISA, dose-dependent, FIG. 6

T1 sequence (P48025 whole entry): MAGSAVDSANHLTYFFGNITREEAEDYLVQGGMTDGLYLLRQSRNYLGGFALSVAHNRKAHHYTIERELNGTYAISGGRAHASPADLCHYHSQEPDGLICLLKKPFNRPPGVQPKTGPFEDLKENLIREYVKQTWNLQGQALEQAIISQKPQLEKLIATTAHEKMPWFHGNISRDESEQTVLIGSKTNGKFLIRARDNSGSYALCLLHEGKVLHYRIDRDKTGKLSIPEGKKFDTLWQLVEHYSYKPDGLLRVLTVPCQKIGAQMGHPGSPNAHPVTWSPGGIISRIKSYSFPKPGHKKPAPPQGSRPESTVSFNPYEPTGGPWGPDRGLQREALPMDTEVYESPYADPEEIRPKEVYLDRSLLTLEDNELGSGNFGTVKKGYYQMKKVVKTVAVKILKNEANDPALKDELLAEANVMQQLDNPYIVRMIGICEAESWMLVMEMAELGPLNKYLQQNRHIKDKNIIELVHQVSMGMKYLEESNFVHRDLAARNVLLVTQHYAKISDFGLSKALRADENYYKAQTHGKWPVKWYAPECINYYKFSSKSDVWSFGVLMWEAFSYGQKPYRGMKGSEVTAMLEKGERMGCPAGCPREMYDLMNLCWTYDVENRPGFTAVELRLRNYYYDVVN

COc1c(O)c(O)c2c(=O)c3c(CC=C(C)C)c(CC=C(C)C)c(O)c(O)c3oc2c1CC=C(C)C [Nujiangexanthone A]
selectively inhibits: phosphorylation of Syk [5] | phosphorylation of Syk [12]
effectively inhibits: production of IgE in serum ([7]; OVA asthma mice, FIG. 3b)
inhibit: degranulation of mast cells (b-Hex) [10, 19] | production of leukotriene LTC4 [10, 19] | production of IL-6 [10, 20] | production of TNF-α [10, 20]
inhibits: expression of phosphorylated Syk [1] | expression of phosphorylated Zap70 [2] | production of IL-5 [3] | production of IL-13 [3] | production of IL-17 [3] | production of cytokines in spleen tissues [4] | level of phosphorylated Syk in lung tissues [6] | level of phosphorylated tyrosine in lung tissues ([7]; immunohistochemistry, FIG. 3d) | expression of GATA3 [9] | MAPK signaling pathways ([14]; N7 1 hour, antigen 15 minutes) | nuclear translocation of p65 ([14]; cytoplasm and nucleus separated) | production of IL-4 in lung tissue [15] | production of IL-5 in lung tissue [15] | production of IL-13 in lung tissue [15] | production of LTC4 in lung tissue [15] | production of PGD2 in lung tissue [15] | production of eotaxin in lung tissue [15] | expression of phosphorylated Stat6 [18]
lower: concentration of calcium [10, 19]
does not affect: phosphorylation of Lck [8] | phosphorylation of Fyn [11] | phosphorylation of Fyn [13] | production of IFNγ in lung tissue [15] | phosphorylation of Lyn [16]
no cytotoxicity: cytotoxicity ([10]; range of concentration used in the activation tests)
does not inhibit: expression of IFN′ [3]
is inhibited: production of transcription factors AP-1 (c-Jun+c-fos) [14]
without altering: expression of T-bet [17]
decreases: infiltrates in peribronchial inflammatory cell ([7]; lung tissues, H&E and PAS, FIG. 3c)
